Test results published in ChEMBL document CHEMBL1201862, “PubChem BioAssay data set” (2004).
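Interpolation was linear, between the two tested concentrations surrounding the appropriate level; five concentrations were tested over 48 hours in 96-well plates. At the GI50, growth is halved.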 Activity calls are given as the source filed them. Cut-off read from the data, not from the text of the source: active = GI50 up to about 1.1 µM and inactive = higher.

Key:
Assay in all cases: NCI anticancer screen, dose series, 48 h
LXFL 529 = test system: LXFL 529
DU-145 = test system: DU-145
BT-549 = test system: BT-549
DMS-114 = test system: DMS-114
SNB-78 = test system: SNB-78
Hs-578T = test system: Hs-578T
MDA-MB-435 = test system: MDA-MB-435
RXF 631 = test system: RXF 631
HOP-18 = test system: HOP-18

CC1=NN(C(=O)c2ccccc2O)C(=O)/C1=C/c1ccc(O)cc1
GI50 (LXFL 529): 0.141 µM (active) | GI50 (DU-145): 0.492 µM (active) | GI50 (BT-549): 0.279 µM (active) | GI50 (DMS-114): 0.348 µM (active) | GI50 (SNB-78): > 100 µM (inactive)

C/C(=N\NC(=O)c1ccncc1)c1sc(-n2nc(-c3ccccc3)cc2-c2ccccc2)nc1C
GI50 (DU-145): > 31.6 µM (inactive) | GI50 (BT-549): > 31.6 µM (inactive) | GI50 (Hs-578T): > 74.3 µM (inactive) | GI50 (MDA-MB-435): > 31.6 µM (inactive)

CNC(=O)C(C)C1CCC2(C)C=CC(=O)C(C)=C2C1O (stereo not given)
GI50 (DMS-114): > 100 µM (inactive) | GI50 (SNB-78): > 100 µM (inactive)

Fc1ccc(C(OCCN2CCN(CCCc3ccccc3)CC2)c2ccc(F)cc2)cc1
GI50 (DU-145): 5.97 µM (inactive) | GI50 (BT-549): 7.05 µM (inactive) | GI50 (Hs-578T): 3.26 µM (inactive) | GI50 (MDA-MB-435): 3.63 µM (inactive)

C[C@]12CCC(=O)C=C1CC[C@@H]1[C@@H]2[C@@H](O)C[C@@]2(C)[C@H]1CC[C@]2(O)C(=O)COC(=O)C1CCCC1
GI50 (DU-145): > 100 µM (inactive) | GI50 (BT-549): > 100 µM (inactive) | GI50 (Hs-578T): > 100 µM (inactive) | GI50 (MDA-MB-435): > 100 µM (inactive)

COC(=O)N1C=Cc2c(c(C)c3c([nH]c4ccccc43)c2C)C1C (stereo not given)
GI50 (LXFL 529): 22.2 µM (inactive) | GI50 (DMS-114): 19.4 µM (inactive) | GI50 (RXF 631): 16.4 µM (inactive)

O=C(CC1=NCCN1)c1ccccc1
GI50 (DMS-114): > 750 µM (inactive) | GI50 (HOP-18): > 649 µM (inactive) | GI50 (SNB-78): > 750 µM (inactive)

CC(=O)Oc1ccc(Nn2c3ccccc3c3ccccc32)c(C)c1
GI50 (LXFL 529): 33.7 µM (inactive) | GI50 (DMS-114): 27.1 µM (inactive) | GI50 (HOP-18): 16.7 µM (inactive) | GI50 (SNB-78): 39.4 µM (inactive)

S=c1c2nc[nH]c2ncn1CCSC1=NC=NC2=NC=NC21 (stereo not given)
GI50 (DU-145): 78.3 µM (inactive) | GI50 (BT-549): > 100 µM (inactive) | GI50 (DMS-114): > 100 µM (inactive) | GI50 (HOP-18): > 100 µM (inactive) | GI50 (Hs-578T): > 100 µM (inactive) | GI50 (MDA-MB-435): 53.5 µM (inactive) | GI50 (SNB-78): 73.6 µM (inactive)

CN(C)CN1C(=O)/C(=N\n2c(S)nnc2-c2ccncc2)c2ccccc21
GI50 (DU-145): 26.5 µM (inactive) | GI50 (BT-549): 94.4 µM (inactive) | GI50 (Hs-578T): 42.5 µM (inactive) | GI50 (MDA-MB-435): 15.8 µM (inactive)

NC(CCCCNCc1ccccc1)C(=O)O (stereo not given)
GI50 (LXFL 529): > 100 µM (inactive) | GI50 (DMS-114): > 100 µM (inactive) | GI50 (HOP-18): > 100 µM (inactive) | GI50 (SNB-78): > 100 µM (inactive) | GI50 (RXF 631): > 100 µM (inactive)

Cc1ncc2c(n1)CCC1=C2OS(=O)(=O)CC1N(C)C (stereo not given)
GI50 (DU-145): > 100 µM (inactive) | GI50 (BT-549): > 100 µM (inactive) | GI50 (Hs-578T): > 100 µM (inactive) | GI50 (MDA-MB-435): > 100 µM (inactive)

O=C(O)CCCCCCC[C@H]1S[C@H]1CCCCCCO
GI50 (DMS-114): > 100 µM (inactive) | GI50 (HOP-18): > 100 µM (inactive) | GI50 (SNB-78): > 100 µM (inactive)

CC(C)CC(N/C=C1/N=C(c2ccccc2)OC1=O)C(=O)O (stereo not given)
GI50 (DMS-114): > 100 µM (inactive) | GI50 (SNB-78): > 100 µM (inactive) | GI50 (RXF 631): > 100 µM (inactive)

N/C(=N\c1c([N+](=O)[O-])cnc2ccccc12)N1CCOCC1
GI50 (DU-145): > 100 µM (inactive) | GI50 (BT-549): > 100 µM (inactive) | GI50 (Hs-578T): > 100 µM (inactive) | GI50 (MDA-MB-435): > 100 µM (inactive)

O=C(CC1(O)C(=O)Nc2c(Cl)cc(Cl)cc21)c1ccco1 (stereo not given)
GI50 (LXFL 529): 37.8 µM (inactive) | GI50 (DMS-114): 22.8 µM (inactive) | GI50 (HOP-18): 55.7 µM (inactive) | GI50 (SNB-78): 26.9 µM (inactive)

Fc1cccc(C2ON=C(c3ccccc3)N2C23CC4CC(CC(C4)C2)C3)c1 (stereo not given)
GI50 (DU-145): > 10 µM (inactive) | GI50 (BT-549): > 10 µM (inactive) | GI50 (Hs-578T): > 10 µM (inactive) | GI50 (MDA-MB-435): > 10 µM (inactive)

O=C1c2ccccc2C(=O)c2c1sc1nc3ccccc3n21
GI50 (DU-145): 1.75 µM (inactive) | GI50 (BT-549): 1.98 µM (inactive) | GI50 (Hs-578T): 0.0239 µM (active) | GI50 (MDA-MB-435): 2.11 µM (inactive)

COC(=O)c1s/c(=N\C(=S)N(C)C)n(-c2ccccc2)c1C(=O)OC
GI50 (DMS-114): 70 µM (inactive) | GI50 (SNB-78): > 100 µM (inactive)

C/C(=N/NC(=O)c1ccccc1S(N)(=O)=O)C(CN1CCCCC1)C(C1=C(O)C2C=CC=CC2OC1=O)c1ccccc1 (stereo not given)
GI50 (LXFL 529): 96.6 µM (inactive) | GI50 (HOP-18): 87.1 µM (inactive) | GI50 (SNB-78): > 100 µM (inactive) | GI50 (RXF 631): > 100 µM (inactive)

CC(=O)C1C(=O)C(=O)N(c2ccc(Cl)cc2C)C1=O (stereo not given)
GI50 (LXFL 529): > 100 µM (inactive) | GI50 (DMS-114): > 100 µM (inactive) | GI50 (HOP-18): > 100 µM (inactive) | GI50 (SNB-78): > 100 µM (inactive) | GI50 (RXF 631): > 100 µM (inactive)

COc1ccc(/C=C(\C2=NC(=O)CS2)c2nc3ccccc3[nH]2)cc1
GI50 (LXFL 529): 60.7 µM (inactive) | GI50 (DMS-114): 19.5 µM (inactive) | GI50 (SNB-78): 21.5 µM (inactive)

O=C1NC2CCCCCC2C12CCCCC2 (stereo not given)
GI50 (LXFL 529): > 100 µM (inactive) | GI50 (DMS-114): > 100 µM (inactive) | GI50 (SNB-78): > 100 µM (inactive) | GI50 (RXF 631): > 100 µM (inactive)

COc1cc(/C=C/C(=O)O)ccc1C(=O)OCc1ccccc1
GI50 (DMS-114): > 100 µM (inactive) | GI50 (HOP-18): > 100 µM (inactive) | GI50 (SNB-78): > 100 µM (inactive)

COc1cccc(C(=O)C#Cc2cnc(OC)nc2OC)c1
GI50 (DU-145): 5.87 µM (inactive) | GI50 (BT-549): 0.306 µM (active) | GI50 (Hs-578T): 7.66 µM (inactive) | GI50 (MDA-MB-435): 1.86 µM (inactive)

Cn1c2ccccc2c2ccc3c(c21)C(=O)C(c1ccccc1)=CC3=O
GI50 (LXFL 529): 16.1 µM (inactive) | GI50 (DMS-114): 17.9 µM (inactive) | GI50 (HOP-18): 0.0957 µM (active) | GI50 (SNB-78): > 100 µM (inactive)
